Test results: US20160194359A1, “CELL-REACTIVE, LONG-ACTING, OR TARGETED COMPSTATIN ANALOGS AND RELATED COMPOSITIONS AND METHODS” (APELLIS PHARMACEUTICALS, INC., priority 2012, published 2016)
Non-standard residues stand in square brackets, D forms with d. Trp(6-F) = N[C@@H](Cc1c[nH]c2cc(F)ccc12)C(=O)O; Bpa = N[C@@H](Cc1ccc(C(=O)c2ccccc2)cc1)C(=O)O; 1Nal = N[C@@H](Cc1cccc2ccccc12)C(=O)O; 2Nal = N[C@@H](Cc1ccc2ccccc2c1)C(=O)O

What was measured:
complement activation = conditions: relative to compstatin amidated at the C-terminus; published data; cited from earlier work
[1] = previous study of CA28 administered intravenously (historical data); format: in vivo, Cynomolgus monkeys; conditions: for Serum concentration: CA28 (IV) 200 mg/kg, unit not in table
From the text: Average values and standard deviations are readily calculated. There was notable consistency between animals.
The data points represent all PEGylated CA28 compound detected.

[2] = biological target: T1, complement component C3 (human) (human, UniProt P01024 23-1663); test: cell-based or functional assay
[3] = biological target: T1, complement component C3 (human); test: cell-based or functional assay; remark: listed apart in the source
[4] = biological target: T1, complement component C3 (human); test: cell-based or functional assay; remark: listed apart in the source

Question: For “Ac-ICV(2-Nal)QDWGAHRCT-CONH2 (Ac-ICV[2Nal]QDWGAHRCT-NH2; cysteine pairing not given here) [Ac-V4(2-Nal)/H9A]”, which Activity over compstatin (complement activation) is on record?
Answer: The Activity over compstatin was 99 × more.

Question: Which Activity over compstatin (complement activation) does the source give for Ac-ICVWQDWGAHRCT-CONH2 [Ac-V4W/H9A] here?
Answer: The Activity over compstatin was 45 × more.

Question: Which Activity over compstatin (complement activation) does the source give for “H-GICV(6fW)QD(6fW)GAHRCTN-COON (H-GICV[Trp(6-F)]QD[Trp(6-F)]GAHRCTN-OH; not fully specified (bridges); cysteine pairing not given here) [+G/V4(6fW)/W7(6fW)H9A+N-OH]” here?
Answer: Its Activity over compstatin is 126 × more.

Question: Which Activity over compstatin (complement activation) does the source give for “Ac-ICV(2-IgI)QDWGAHRCT-COOH (Ac-ICV[2‑IgI]QDWGAHRCT-OH; cysteine pairing not given here) [Ac-V42IgI/H9A-OH]” here?
Answer: Its Activity over compstatin is 37 × more.

Question: With Ac-ICVYQDWGAHRCT-CONH2 [Ac-V4Y/H9A] as the molecule, how does the Activity over compstatin (complement activation) read?
Answer: Its Activity over compstatin is 14 × more.

Question: With “Ac-ICV(5fW)QDWGAHRCT-CONH2 [Ac-V4(5fW)/H9A]” as the molecule, how does the Activity over compstatin (complement activation) read?
Answer: The Activity over compstatin was 31 × more.

Question: For “Ac-ICV(2-Nal)QDWGAHRCT-COOH (Ac-ICV[2Nal]QDWGAHRCT-OH; cysteine pairing not given here) [Ac V4(2-Nal)/H9A-OH]”, which Activity over compstatin (complement activation) is on record?
Answer: Its Activity over compstatin is 38 × more.

Question: For “Ac-ICVWQDWGAHRCdT-COOH [Ac-V4W/H9A/T13dT-OH]”, which Activity over compstatin (complement activation) is on record?
Answer: Its Activity over compstatin is 55 × more.

Question: For “Ac-ICVWQD(5fW)GAHRCT-CONH2 [Ac-V4W/W7(5fW)/H9A]”, which Activity over compstatin (complement activation) is on record?
Answer: The Activity over compstatin was 121 × more.

Question: Which Activity over compstatin (complement activation) does the source give for “Ac-ICVDhtQDWGAHRCT-COOH [Ac-V4Dht/H9A-OH]” here?
Answer: The Activity over compstatin was 5 × more.

Question: For `CC[C@H](C)[C@H](NC(C)=O)C(=O)N[C@H]1CSSC[C@@H](C(=O)N[C@H](C(N)=O)[C@@H](C)O)NC(=O)[C@H](CCCNC(=N)N)NC(=O)[C@H](Cc2cnc[nH]2)NC(=O)[C@H](C)NC(=O)CNC(=O)[C@H](Cc2c[nH]c3ccccc23)NC(=O)[C@H](CC(=O)O)NC(=O)[C@H](CCC(N)=O)NC(=O)[C@H](Cc2cn(C)c3ccccc23)NC(=O)[C@H](C(C)C)NC1=O` [CA28], which Serum concentration ([1]; time 0.02 days, historical data) is on record?
Answer: The Serum concentration was 34.

Question: And the Serum concentration ([1]; time 0.042 days, historical data)?
Answer: Its Serum concentration is 17.

Question: What about the Serum concentration ([1]; time 0.167 days, historical data) of the same molecule?
Answer: Its Serum concentration is 9.

Question: And the Serum concentration ([1]; time 0.333 days, historical data)?
Answer: The Serum concentration was 5.

Question: And the Serum concentration ([1]; time 1 day, historical data)?
Answer: Its Serum concentration is 1.5.

Question: And the level at 4.008 h ([1]; cynomolgus monkey, serum, iv, 200 mg/kg, read-out: Serum Concentration)?
Answer: Its level at 4.008 h is 9000 ng/mL.

Question: What about the level at 0.48 h ([1]; cynomolgus monkey, serum, IV 200 mg/kg, time 0.02 days, historical data, HPLC, read-out: Serum Concentration) of the same molecule?
Answer: Its level at 0.48 h is 34000 ng/mL.

Question: And the level at 1.008 h ([1]; cynomolgus monkey, serum, IV 200 mg/kg, time 0.042 days, historical data, HPLC, read-out: Serum Concentration)?
Answer: The level at 1.008 h was 17000 ng/mL.

Question: And the level at 7.992 h ([1]; cynomolgus monkey, serum, IV 200 mg/kg, time 0.333 days, historical data, HPLC, read-out: Serum Concentration)?
Answer: The level at 7.992 h was 5000 ng/mL.

Question: And the level at 24 h ([1]; cynomolgus monkey, serum, IV 200 mg/kg, time 1 day, historical data, HPLC, read-out: Serum Concentration)?
Answer: The level at 24 h was 1500 ng/mL.

Question: Which Activity over compstatin (complement activation) does the source give for “Ac-ICV(Bpa)QDWGAHRCT-COOH (Ac-ICV[Bpa]QDWGAHRCT-OH; not fully specified (bridges); printed as Ac-ICV(Bpa)QDWGAHRCT-COOH; cysteine pairing not given here) [Ac-V4(Bpa)/H9A-OH]” here?
Answer: The Activity over compstatin was 49 × more.

Question: For “Ac-ICV(2-IgI)QDWGAHRCT-CONH2 (Ac-ICV[2‑IgI]QDWGAHRCT-NH2; cysteine pairing not given here) [Ac-V42IgI/H9A]”, which Activity over compstatin (complement activation) is on record?
Answer: The Activity over compstatin was 39 × more.

Question: For “Ac-ICV(Bpa)QDWGAHRCT-CONH2 (Ac-ICV[Bpa]QDWGAHRCT-NH2; not fully specified (bridges); printed as Ac-ICV(Bpa)QDWGAHRCT-CONH2; cysteine pairing not given here) [Ac-V4(Bpa)/H9A]”, which Activity over compstatin (complement activation) is on record?
Answer: Its Activity over compstatin is 86 × more.

Question: With “Ac-ICV(5-methyl-W)QDWGAHRCT-CONH2 [Ac-V4(5-MeW)/H9A]” as the molecule, how does the Activity over compstatin (complement activation) read?
Answer: Its Activity over compstatin is 67 × more.

Question: Which Activity over compstatin (complement activation) does the source give for “Ac-ICV(1-Nal)QDWGAHRCT-COOH (Ac-ICV[1Nal]QDWGAHRCT-OH; cysteine pairing not given here) [Ac V4(1-Nal)/H9A-OH]” here?
Answer: Its Activity over compstatin is 30 × more.

Question: Which Activity over compstatin (complement activation) does the source give for Ac-ICVVQDWGHHRCT-CONH2 [Ac-compstatin] here?
Answer: The Activity over compstatin was 3 × more.

B1: CA28-AEEAc-Lys-(PEG30k) (peptide)
peptide: ICVWQDWGAHRCTK
modifications: N-terminal acetyl; 1-methyl-tryptophan at position 4; disulfide Cys2-Cys12; AEEAc (8-amino-3,6-dioxaoctanoyl) linker after Thr13; linear 30 kD mPEG (NOF ME-300GS) on the Lys side chain; C-terminal amide
Question: Which “IC50, classical complement inhibition assay (C3b deposition ELISA)” value [2] does the source give for B1 here?
Answer: The value was 1260 nM.

B2: CA28-2GS-BF (bifunctionalized PEG-based compstatin analog, GS type) (peptide)
peptide: ICVWQDWGAHRCTK
modifications: N-terminal acetyl; 1-methyl-tryptophan at position 4; disulfide Cys2-Cys12; AEEAc linker after Thr13; Lys side chain coupled to one end of a bifunctional linear 40 kD PEG (glutaryl, GS type); C-terminal amide
Question: For B2, which “% Parent in Q1 (Type III cells with high C3d deposition); modified Ham's assay, 50 ug/ml” value [3] is on record?
Answer: Its value is 0.01%.

Question: And the “% Parent in Q2 (Type I and II cells with high C3d deposition); modified Ham's assay, 50 ug/ml” value [3]?
Answer: The value was 0.01%.

Question: And the “% Parent in Q3 (Type III cells without significant C3d deposition); modified Ham's assay, 50 ug/ml” value [3]?
Answer: The value was 61.5%.

Question: What about the “% Parent in Q4 (Type I and II cells without significant C3d deposition); modified Ham's assay, 50 ug/ml” value [3] of the same molecule?
Answer: Its value is 38.5%.

B3: CA28-AEEAc-Lys-(PEG40k) (peptide)
peptide: ICVWQDWGAHRCTK
modifications: N-terminal acetyl; 1-methyl-tryptophan at position 4; disulfide Cys2-Cys12; AEEAc linker after Thr13; linear 40 kD mPEG (NOF ME-400GS, glutaryl) on the Lys side chain; C-terminal amide
Question: Which “IC50, classical complement inhibition assay (C3b deposition ELISA)” value [2] does the source give for B3 here?
Answer: The value was 1290 nM.

Question: What about the “IC50 (read off the curve); classical pathway complement activation (C3b deposition ELISA, human plasma)” value (from here on “IC50 (read off the curve)”) [4] of the same molecule?
Answer: Its value is about 700 nM.

B4: CA28-AEEAc-Lys(mPEG40K-hexanoyl) (peptide)
peptide: ICVWQDWGAHRCTK
modifications: N-terminal acetyl; 1-methyl-tryptophan at position 4; disulfide Cys2-Cys12; AEEAc linker after Thr13; linear 40 kD mPEG (NOF ME-400HS, hexanoyl) on the Lys side chain; C-terminal amide
Question: For B4, which “IC50 (read off the curve)” value [4] is on record?
Answer: The value was about 700 nM.

B5: CA28-AEEAc-Lys(mPEG40K-carbonyl) (peptide)
peptide: ICVWQDWGAHRCTK
modifications: not fully specified; N-terminal acetyl; 1-methyl-tryptophan at position 4; disulfide Cys2-Cys12; AEEAc linker after Thr13; linear 40 kD mPEG (NOF ME-400TS, carbonyl) on the Lys side chain; C-terminal amide
Question: With B5 as the molecule, how does the “IC50 (read off the curve)” value [4] read?
Answer: The value was about 700 nM.

B6: CA28-AEEAc-Lys(mPEG40K-succinyl) (peptide)
peptide: ICVWQDWGAHRCTK
modifications: N-terminal acetyl; 1-methyl-tryptophan at position 4; disulfide Cys2-Cys12; AEEAc linker after Thr13; linear 40 kD mPEG (NOF ME-400CS, succinyl) on the Lys side chain; C-terminal amide
Question: With B6 as the molecule, how does the “IC50 (read off the curve)” value [4] read?
Answer: The value was about 700 nM.
